Experimental data reported in patent US9981959B2, “Thiazolyl and oxazolyl urea, thiourea, guanidine and cyanoguanidine compounds as TrkA kinase inhibitors” (Array BioPharma Inc., priority 2012, dated 2018).

What was measured:
Assay in all cases: KinaseProfiler off-target kinase profiling
Type in all cases: biochemical
Conditions in all cases: 10 μM, ATP near Km
KIT = target: T1, KIT (Homo sapiens, UniProt P10721)
T1 construct: purchased Millipore, Inc. (KinaseProfiler service)
Outline: (§1)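 Run at ATP concentrations near each kinase's Km, the profiling used 10 μM compound in duplicate. Reported numbers are percent of control averaged across both runs.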

CDK2/cyclinA = target: T2, CDK2/cyclinA (Homo sapiens, UniProt P24941)
T2 construct: purchased Millipore (KinaseProfiler service)
Outline: as §1

TrkB = target: T3, TrkB (Homo sapiens, UniProt Q16620)
T3 construct: purchased Millipore, Inc. (KinaseProfiler service)
Outline: as §1

PTK6 = target: T4, PTK6 (Homo sapiens, UniProt Q13882)
T4 construct: purchased Millipore, Inc. (KinaseProfiler service)
Outline: as §1

BrSK1 = target: T5, BrSK1 (Homo sapiens, UniProt Q8TDC3)
T5 construct: purchased Millipore (KinaseProfiler service)
Outline: as §1

MAPKAP-K5 = target: T6, MAPKAP-K5 (Homo sapiens, UniProt Q8IW41)
T6 construct: purchased Millipore, Inc. (KinaseProfiler service)
Outline: as §1

CK1_y = system: CK1_y
Outline: as §1

SGK2 = target: T7, SGK2 (Homo sapiens, UniProt Q9HBY8)
T7 construct: purchased Millipore, Inc. (KinaseProfiler service)
Outline: as §1

PKAC-alpha = target: T8, PKAC-alpha (Homo sapiens, UniProt P17612)
T8 construct: purchased Millipore, Inc. (KinaseProfiler service)
Outline: as §1

CK2 = target: T9, CK2 (Homo sapiens, UniProt P68400)
T9 construct: purchased Millipore, Inc. (KinaseProfiler service)
Outline: as §1

LKB1 = target: T10, LKB1 (Homo sapiens, UniProt Q15831)
T10 construct: purchased Millipore, Inc. (KinaseProfiler service)
Outline: as §1

Fyn = target: T11, Fyn (Homo sapiens, UniProt P06241)
T11 construct: purchased Millipore, Inc. (KinaseProfiler service)
Outline: as §1

IGF-1R Activated = target: T12, IGF-1R Activated (Homo sapiens, UniProt P08069)
T12 construct: purchased Millipore, Inc. (KinaseProfiler service)
Outline: as §1

JNK1alpha1 = target: T13, JNK1alpha1 (Homo sapiens, UniProt P45983)
T13 construct: purchased Millipore, Inc. (KinaseProfiler service)
Outline: as §1

SRC = target: T14, SRC (Homo sapiens, UniProt P12931)
T14 construct: purchased Millipore, Inc. (KinaseProfiler service)
Outline: as §1

SRPK2 = target: T15, SRPK2 (Homo sapiens, UniProt P78362)
T15 construct: purchased Millipore, Inc. (KinaseProfiler service)
Outline: as §1

CSK = target: T16, CSK (Homo sapiens, UniProt P41240)
T16 construct: purchased Millipore, Inc. (KinaseProfiler service)
Outline: as §1

HIPK3 = target: T17, HIPK3 (Homo sapiens, UniProt Q9H422)
T17 construct: purchased Millipore, Inc. (KinaseProfiler service)
Outline: as §1

Lck = target: T18, Lck (Homo sapiens, UniProt P06239)
T18 construct: purchased Millipore, Inc. (KinaseProfiler service)
Outline: as §1

Rsk3 = target: T19, Rsk3 (Homo sapiens, UniProt Q15349)
T19 construct: purchased Millipore, Inc. (KinaseProfiler service)
Outline: as §1

Yes = target: T20, Yes (Homo sapiens, UniProt P07947)
T20 construct: purchased Millipore, Inc. (KinaseProfiler service)
Outline: as §1

EphA2 = target: T21, EphA2 (Homo sapiens, UniProt P29317)
T21 construct: purchased Millipore, Inc. (KinaseProfiler service)
Outline: as §1

PKD2 = target: T22, PKD2 (Homo sapiens, UniProt Q9BZL6)
T22 construct: purchased Millipore, Inc. (KinaseProfiler service)
Outline: as §1

MARK2 = target: T23, MARK2 (Homo sapiens, UniProt Q7KZI7)
T23 construct: purchased Millipore, Inc. (KinaseProfiler service)
Outline: as §1

GSK3beta = target: T24, GSK3beta (Homo sapiens, UniProt P49841)
T24 construct: purchased Millipore, Inc. (KinaseProfiler service)
Outline: as §1

p38delta = target: T25, p38delta (Homo sapiens, UniProt O15264)
T25 construct: purchased Millipore, Inc. (KinaseProfiler service)
Outline: as §1

JNK3 = target: T26, JNK3 (Homo sapiens, UniProt P53779)
T26 construct: purchased Millipore, Inc. (KinaseProfiler service)
Outline: as §1

WNK3 = target: T27, WNK3 (Homo sapiens, UniProt Q9BYP7)
T27 construct: purchased Millipore, Inc. (KinaseProfiler service)
Outline: as §1

BLK_m = target: T28, BLK_m (Mus musculus, UniProt P16277)
T28 construct: purchased Millipore (KinaseProfiler service)
Outline: as §1

mTOR = target: T29, mTOR (Homo sapiens, UniProt P42345)
T29 construct: purchased Millipore, Inc. (KinaseProfiler service)
Outline: (§2)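 Compound was screened once at 10 μM against the full commercial kinase panel. ATP was held near each kinase's Km, duplicates were run, and activity was expressed as average percent of control.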

DRAK1 = target: T30, DRAK1 (Homo sapiens, UniProt Q9UEE5)
T30 construct: purchased Millipore, Inc. (KinaseProfiler service)
Outline: as §1

EphA3 = target: T31, EphA3 (Homo sapiens, UniProt P29320)
T31 construct: purchased Millipore, Inc. (KinaseProfiler service)
Outline: as §1

Syk = target: T32, Syk (Homo sapiens, UniProt P43405)
T32 construct: purchased Millipore, Inc. (KinaseProfiler service)
Outline: as §2

CAMK1 = target: T33, CAMK1 (Homo sapiens, UniProt Q14012)
T33 construct: purchased Millipore (KinaseProfiler service)
Outline: as §1

IRAK4 = target: T34, IRAK4 (Homo sapiens, UniProt Q9NWZ3)
T34 construct: purchased Millipore, Inc. (KinaseProfiler service)
Outline: as §1

Abl2 = target: T35, Abl2 (Homo sapiens, UniProt P42684)
T35 construct: purchased Millipore (KinaseProfiler service)
Outline: as §1

CK1delta = target: T36, CK1delta (Homo sapiens, UniProt P48730)
T36 construct: purchased Millipore, Inc. (KinaseProfiler service)
Outline: as §1

T34 sequence (Q9NWZ3 whole entry): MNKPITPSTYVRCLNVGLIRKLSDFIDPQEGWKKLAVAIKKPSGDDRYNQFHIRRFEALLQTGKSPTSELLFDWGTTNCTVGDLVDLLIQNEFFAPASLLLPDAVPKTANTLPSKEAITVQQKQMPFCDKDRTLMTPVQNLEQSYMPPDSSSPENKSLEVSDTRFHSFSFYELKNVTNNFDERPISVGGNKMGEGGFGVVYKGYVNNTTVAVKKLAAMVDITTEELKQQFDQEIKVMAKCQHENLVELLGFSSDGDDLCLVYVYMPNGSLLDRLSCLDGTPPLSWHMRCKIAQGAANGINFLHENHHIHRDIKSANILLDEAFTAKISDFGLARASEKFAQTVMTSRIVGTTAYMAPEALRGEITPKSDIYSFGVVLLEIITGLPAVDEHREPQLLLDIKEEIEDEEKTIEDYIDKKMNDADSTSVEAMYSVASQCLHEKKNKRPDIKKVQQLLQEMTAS
T4 sequence (Q13882 whole entry): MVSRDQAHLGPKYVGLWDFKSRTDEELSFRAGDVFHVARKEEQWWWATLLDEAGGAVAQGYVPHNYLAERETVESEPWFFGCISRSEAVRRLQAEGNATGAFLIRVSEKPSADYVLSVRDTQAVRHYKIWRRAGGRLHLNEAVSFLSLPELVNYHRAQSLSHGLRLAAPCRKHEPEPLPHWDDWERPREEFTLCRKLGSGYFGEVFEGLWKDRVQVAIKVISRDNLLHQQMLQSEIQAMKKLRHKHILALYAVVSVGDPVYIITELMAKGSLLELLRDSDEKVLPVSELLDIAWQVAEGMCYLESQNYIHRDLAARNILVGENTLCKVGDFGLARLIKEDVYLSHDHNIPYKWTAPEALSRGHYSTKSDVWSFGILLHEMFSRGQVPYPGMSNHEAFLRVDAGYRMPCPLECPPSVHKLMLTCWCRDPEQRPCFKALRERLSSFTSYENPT
T14 sequence (P12931 whole entry): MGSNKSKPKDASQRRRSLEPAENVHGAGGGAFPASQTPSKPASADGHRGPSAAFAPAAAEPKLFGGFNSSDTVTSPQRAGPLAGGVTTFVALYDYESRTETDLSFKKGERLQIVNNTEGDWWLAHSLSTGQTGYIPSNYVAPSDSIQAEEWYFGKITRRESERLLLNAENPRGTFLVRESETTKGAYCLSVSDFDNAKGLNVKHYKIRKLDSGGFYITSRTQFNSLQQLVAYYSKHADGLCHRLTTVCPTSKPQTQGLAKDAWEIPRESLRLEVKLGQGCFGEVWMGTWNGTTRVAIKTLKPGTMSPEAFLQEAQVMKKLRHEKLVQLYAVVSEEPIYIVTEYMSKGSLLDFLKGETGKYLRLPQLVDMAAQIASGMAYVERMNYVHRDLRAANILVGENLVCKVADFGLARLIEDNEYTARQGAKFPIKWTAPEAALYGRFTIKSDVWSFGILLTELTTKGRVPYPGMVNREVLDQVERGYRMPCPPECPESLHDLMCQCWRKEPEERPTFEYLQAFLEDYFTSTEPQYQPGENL
T27 sequence (Q9BYP7 whole entry): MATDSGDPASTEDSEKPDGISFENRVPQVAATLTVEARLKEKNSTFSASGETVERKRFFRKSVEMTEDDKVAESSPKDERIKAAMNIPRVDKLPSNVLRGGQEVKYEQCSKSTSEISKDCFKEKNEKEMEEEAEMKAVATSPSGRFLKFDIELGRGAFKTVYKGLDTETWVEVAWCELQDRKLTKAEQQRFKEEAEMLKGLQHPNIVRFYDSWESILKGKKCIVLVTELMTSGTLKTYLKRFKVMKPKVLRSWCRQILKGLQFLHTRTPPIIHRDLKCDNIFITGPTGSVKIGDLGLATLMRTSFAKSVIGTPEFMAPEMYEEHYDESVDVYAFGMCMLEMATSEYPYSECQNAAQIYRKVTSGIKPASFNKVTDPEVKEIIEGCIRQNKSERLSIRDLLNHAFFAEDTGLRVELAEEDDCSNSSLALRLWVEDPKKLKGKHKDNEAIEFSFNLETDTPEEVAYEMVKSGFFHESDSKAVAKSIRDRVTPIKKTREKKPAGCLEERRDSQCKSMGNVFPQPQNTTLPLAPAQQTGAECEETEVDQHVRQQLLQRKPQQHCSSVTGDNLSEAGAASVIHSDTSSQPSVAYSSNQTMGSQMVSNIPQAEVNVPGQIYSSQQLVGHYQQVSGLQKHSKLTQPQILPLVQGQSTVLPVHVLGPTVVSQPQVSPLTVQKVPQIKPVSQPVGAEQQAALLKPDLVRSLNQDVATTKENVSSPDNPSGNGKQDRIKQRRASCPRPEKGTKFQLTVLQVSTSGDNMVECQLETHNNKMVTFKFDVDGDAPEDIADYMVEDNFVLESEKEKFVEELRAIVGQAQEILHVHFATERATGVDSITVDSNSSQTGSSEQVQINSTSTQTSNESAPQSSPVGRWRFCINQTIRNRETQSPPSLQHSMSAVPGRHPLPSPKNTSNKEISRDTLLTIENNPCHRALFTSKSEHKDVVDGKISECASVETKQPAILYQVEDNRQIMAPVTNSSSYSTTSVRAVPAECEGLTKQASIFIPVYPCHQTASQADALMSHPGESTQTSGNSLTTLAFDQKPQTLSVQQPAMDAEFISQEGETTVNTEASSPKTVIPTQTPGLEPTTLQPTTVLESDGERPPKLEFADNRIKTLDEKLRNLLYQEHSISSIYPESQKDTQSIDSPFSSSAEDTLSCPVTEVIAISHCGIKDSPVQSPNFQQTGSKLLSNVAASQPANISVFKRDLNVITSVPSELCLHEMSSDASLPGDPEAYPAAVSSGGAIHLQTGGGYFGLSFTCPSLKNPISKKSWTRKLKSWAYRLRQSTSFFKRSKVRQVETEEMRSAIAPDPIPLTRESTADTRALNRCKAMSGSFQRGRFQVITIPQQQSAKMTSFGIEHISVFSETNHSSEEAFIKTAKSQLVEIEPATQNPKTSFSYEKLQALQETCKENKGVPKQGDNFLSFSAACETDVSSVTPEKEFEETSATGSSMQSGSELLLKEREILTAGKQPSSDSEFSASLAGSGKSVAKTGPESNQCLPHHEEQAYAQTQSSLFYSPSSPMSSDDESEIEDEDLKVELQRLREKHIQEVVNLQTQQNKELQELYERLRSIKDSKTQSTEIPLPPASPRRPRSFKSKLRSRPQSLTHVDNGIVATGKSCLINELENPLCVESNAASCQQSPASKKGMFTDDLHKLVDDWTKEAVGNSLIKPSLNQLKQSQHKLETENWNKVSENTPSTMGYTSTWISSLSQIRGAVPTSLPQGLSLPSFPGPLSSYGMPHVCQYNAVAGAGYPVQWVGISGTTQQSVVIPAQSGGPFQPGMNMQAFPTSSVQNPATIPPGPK
T12 sequence (P08069 959-1367 limits assumed): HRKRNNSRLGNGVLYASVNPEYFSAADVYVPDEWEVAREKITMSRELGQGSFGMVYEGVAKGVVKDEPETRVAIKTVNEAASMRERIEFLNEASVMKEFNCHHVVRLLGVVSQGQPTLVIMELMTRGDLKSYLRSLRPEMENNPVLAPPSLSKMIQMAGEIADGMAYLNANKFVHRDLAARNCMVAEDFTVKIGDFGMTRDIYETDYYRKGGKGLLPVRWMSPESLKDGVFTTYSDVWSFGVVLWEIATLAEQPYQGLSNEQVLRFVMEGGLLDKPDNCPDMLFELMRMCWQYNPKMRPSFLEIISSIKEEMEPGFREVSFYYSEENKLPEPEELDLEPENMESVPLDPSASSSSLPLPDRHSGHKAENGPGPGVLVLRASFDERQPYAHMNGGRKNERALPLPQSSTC
T24 sequence (P49841 whole entry): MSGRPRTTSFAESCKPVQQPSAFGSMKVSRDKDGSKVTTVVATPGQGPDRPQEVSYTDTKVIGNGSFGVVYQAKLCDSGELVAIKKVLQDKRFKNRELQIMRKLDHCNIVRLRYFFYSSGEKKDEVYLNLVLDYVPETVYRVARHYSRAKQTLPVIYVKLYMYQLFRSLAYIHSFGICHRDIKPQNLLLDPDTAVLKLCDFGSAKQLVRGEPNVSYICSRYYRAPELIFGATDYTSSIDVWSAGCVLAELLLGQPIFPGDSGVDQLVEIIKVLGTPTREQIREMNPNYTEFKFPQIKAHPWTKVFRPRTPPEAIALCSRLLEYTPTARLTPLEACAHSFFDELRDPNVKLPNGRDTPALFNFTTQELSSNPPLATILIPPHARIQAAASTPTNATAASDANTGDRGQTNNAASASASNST
T11 sequence (P06241 whole entry): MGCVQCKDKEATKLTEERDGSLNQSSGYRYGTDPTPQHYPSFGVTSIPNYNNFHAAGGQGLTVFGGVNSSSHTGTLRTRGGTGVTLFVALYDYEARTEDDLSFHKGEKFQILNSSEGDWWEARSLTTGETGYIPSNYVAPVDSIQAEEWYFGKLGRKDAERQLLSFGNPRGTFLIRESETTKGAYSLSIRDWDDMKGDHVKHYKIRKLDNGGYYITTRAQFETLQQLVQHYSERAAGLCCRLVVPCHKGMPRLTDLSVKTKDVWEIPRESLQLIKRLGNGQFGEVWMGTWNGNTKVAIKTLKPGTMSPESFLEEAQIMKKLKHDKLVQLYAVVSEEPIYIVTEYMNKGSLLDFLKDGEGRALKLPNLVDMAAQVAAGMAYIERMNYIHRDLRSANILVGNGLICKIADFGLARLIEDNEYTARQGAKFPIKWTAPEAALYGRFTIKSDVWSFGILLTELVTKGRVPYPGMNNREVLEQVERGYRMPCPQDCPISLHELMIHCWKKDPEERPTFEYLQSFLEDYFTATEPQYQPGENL
T33 sequence (Q14012 whole entry): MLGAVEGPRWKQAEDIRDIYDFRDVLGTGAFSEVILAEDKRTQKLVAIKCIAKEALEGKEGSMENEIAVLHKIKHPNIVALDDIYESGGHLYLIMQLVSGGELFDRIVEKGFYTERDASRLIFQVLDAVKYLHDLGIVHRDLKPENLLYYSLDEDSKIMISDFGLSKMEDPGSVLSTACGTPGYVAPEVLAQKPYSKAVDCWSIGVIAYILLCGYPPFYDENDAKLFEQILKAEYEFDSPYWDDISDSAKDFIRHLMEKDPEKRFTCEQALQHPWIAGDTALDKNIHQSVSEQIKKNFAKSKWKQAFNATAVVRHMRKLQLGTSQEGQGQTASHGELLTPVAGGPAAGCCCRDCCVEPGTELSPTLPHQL

Avg POC (KIT): 102.5 POC
Avg POC (CDK2/cyclinA): 122 POC
Avg POC (TrkB): 3 POC
Avg POC (PTK6): 113.5 POC
Avg POC (BrSK1): 132.5 POC
Avg POC (MAPKAP-K5): 95.5 POC
Avg POC (CK1_y): 103 POC
Avg POC (SGK2): 144.5 POC
Avg POC (PKAC-alpha): 134 POC
Avg POC (CK2): 95 POC
Avg POC (LKB1): 96.5 POC
Avg POC (Fyn): 105.5 POC
Avg POC (IGF-1R Activated): 97.5 POC
Avg POC (JNK1alpha1): 113 POC
Avg POC (SRC): 110.5 POC
Avg POC (SRPK2): 113.5 POC
Avg POC (CSK): 136 POC
Avg POC (HIPK3): 105.5 POC
Avg POC (Lck): 103 POC
Avg POC (Rsk3): 99 POC
Avg POC (Yes): 128.5 POC
Avg POC (EphA2): 127 POC
Avg POC (PKD2): 110.5 POC
Avg POC (MARK2): 100.5 POC
Avg POC (GSK3beta): 127.5 POC
Avg POC (p38delta): 104.5 POC
Avg POC (JNK3): 120 POC
Avg POC (WNK3): 112.5 POC
Avg POC (BLK_m): 112 POC
Avg POC (mTOR): 92.5 POC
Avg POC (DRAK1): 119 POC
Avg POC (EphA3): 120 POC
Avg POC (Syk): 127.5 POC
Avg POC (CAMK1): 95.5 POC
Avg POC (IRAK4): 112 POC
Avg POC (Abl2): 136 POC
Avg POC (CK1delta): 117.5 POC
SMILES: Cc1c(-c2cnn(C)c2)nn(-c2ccccc2)c1NC(=O)Nc1sc(C(F)(F)F)nc1-c1ccccc1 [Example 2, 1-(1′,4-dimethyl-1-phenyl-1H,1′H-[3,4′-bipyrazol]-5-yl)-3-(4-phenyl-2-(trifluoromethyl)thiazol-5-yl)urea]
